The results in this text go back to patent US20220111034A1, “VIRUS COMPOSITIONS” (priority 2019, published 2022).

The target of one assay is T1, σ1-α-SA complex (Reovirus type 3, UniProt P03528).
T1 construct: made in house; host or cells: L929 cells (virus-infected)
T1 sequence (P03528 1-455): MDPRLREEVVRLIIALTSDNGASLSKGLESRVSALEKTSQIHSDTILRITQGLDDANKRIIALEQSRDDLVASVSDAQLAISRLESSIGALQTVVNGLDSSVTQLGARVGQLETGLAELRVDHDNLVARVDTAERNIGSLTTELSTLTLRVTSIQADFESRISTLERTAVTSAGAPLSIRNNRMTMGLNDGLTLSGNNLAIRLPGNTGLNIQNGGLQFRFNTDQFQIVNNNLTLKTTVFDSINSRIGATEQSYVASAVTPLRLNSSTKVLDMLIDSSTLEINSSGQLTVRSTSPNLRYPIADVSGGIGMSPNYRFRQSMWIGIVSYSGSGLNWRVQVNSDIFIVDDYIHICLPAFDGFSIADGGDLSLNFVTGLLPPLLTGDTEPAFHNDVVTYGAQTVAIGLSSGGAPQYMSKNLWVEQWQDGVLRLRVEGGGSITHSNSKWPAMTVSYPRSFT
In words: FD-based AFM single-virus force spectroscopy on α-SA-coated model surfaces. In kind it is binding. As to conditions: injection of 1 mM free glycan, FIG. 3b. The procedure:
(§1) NHS-PEG27-acetal linkers were used to functionalize AFM tips as described (Gruber. Crosslinkers and Protocols for AFM Tip Functionalization. https://wwwjku.at/institut-fuer-biophysik/forschung/linked, 2018; Wildling et al. Linking of sensor molecules with amino groups to aminofunctionalized AFM tips. Bioconjug. Chem. 2011, vol. 22, 1239-1248). AFM tips (PFQNM-LC and MSCT probes, Bruker) were immersed in chloroform for 10 min, rinsed with ethanol, dried with a stream of filtered nitrogen, cleaned for 10 min using an ultraviolet radiation and ozone (UV-0) cleaner (Jetlight), and immersed overnight in an ethanolamine solution (3.3 g of ethanolamine hydrochloride in 6.6 mL of DMSO). The cantilevers were washed three times with DMSO, and two times with ethanol and dried with nitrogen. To ensure a low grafting density of the linker on the AFM tip, 1 mg of acetal-PEG27-NHS was diluted in 0.5 mL of chloroform with 30 μL of […] (Gruber, supra; Wildling et al., supra). Ethanolamine-coated cantilevers were immersed for 2 h in this solution, washed three times with chloroform, and dried with nitrogen. Cantilevers were then immersed for 10 min in 1% citric acid in milliQ water, washed three times with milliQ water, and dried with nitrogen. Virus solution (80 μL at ˜10^8 to 10^9 particles mL^−1) was pipetted onto the tips placed on Parafilm (Bemis NA) in a small plastic dish stored within an icebox. A freshly prepared solution of NaCNBH3 (2 μL at ˜6% wt. in 0.1 M NaOH(aq)) was gently mixed into the virus solution, and the cantilever chips were gently positioned with the cantilevers extending into the virus drop. The icebox was incubated at 4° C. for 1 h. Then, 5 μL of 1 M ethanolamine solution (pH 8) was gently mixed into the drop to quench the reaction. The icebox was incubated at 4° C. for an additional 10 min, and the cantilever chips were removed, washed three times in ice-cold PBS, and stored in individual wells of a multiwell dish containing 2 mL of ice-cold virus buffer (150 mM NaCl, 15 mM MgCl2, 10 mM Tris, pH adjusted to 7.4) per well until used in AFM experiments. […]

Another assay deals with JAM-A. In words: FD-based AFM single-virus force spectroscopy on JAM-A-coated model surfaces. In kind it is binding. As to conditions: for change in JAM-A-T3SA− binding or multivalent interactions: 1 mM glycan injected, FIG. 6a-c. As to the method:
as §1, with “reaction.” for “reaction. The icebox was incubated at 4° C. for an additional 10 min, and the cantilever chips were removed, washed three times in ice-cold PBS, and stored in individual wells of a multiwell dish containing 2 mL of ice-cold virus buffer (150 mM NaCl, 15 mM MgCl2, 10 mM Tris, pH adjusted to 7.4) per well until used in AFM experiments.”
His6-tagged JAM-A (Bio-Connect Life Science) was immobilized using NTA-His6 binding chemistry, as described (Dupres et al. 2005, supra; Dufrêne. Life at the nanoscale: atomic force microscopy of live cells. Pan Stanford Publishing, 2011). […] The thickness was measured as described for sialic-acid-coated model surfaces.
AFM Nanoscope Multimode 8 (Bruker) was used (Nanoscope software v9.1) to conduct FD-based AFM. Virus-functionalized MSCT-D probes (with spring constants calculated using thermal tune, ranging from 0.024 to 0.043 N m^−1) (Butt & Jaschke. Calculation of thermal noise in atomic-force microscopy. Nanotechnol. 1995, vol. 6, 1-7) were used to record force curves from 5×5 μm arrays in the force-volume (contact) mode. […]

As to `CC(=O)N[C@H]1[C@H](O[C@H]2[C@@H](O)[C@@H](CO)O[C@@H](O[C@H]3[C@H](O)[C@@H](O)C(O)O[C@@H]3CO)[C@@H]2O)O[C@H](CO)[C@@H](O[C@@H]2O[C@H](CO)[C@H](O)[C@H](O)[C@H]2O)[C@@H]1O` (mixture of isomers) [LNnT, lacto-N-neotetraose, reference compound], the “competition with T3SA+ binding to SA” value at σ1-α-SA complex is on record as “but not LNnT strongly competed”. In addition, the “effect on the overall binding of T3SA+ to JAM-A” value with JAM-A (1 mM glycan, FIG. 5d) was “had no effect”.

As to sialyl-lacto-N-tetraose a [LSTa], on σ1-α-SA complex, the “competition with T3SA+ binding to SA” value was “strongly competed”. Besides, in the assay with JAM-A, the “change in JAM-A-T3SA− binding or multivalent interactions” value is on record as “does not induce any change”.

Take `CC(=O)N[C@H]1[C@H]([C@H](O)[C@H](O)CO)OC(O)(C(=O)O)C[C@@H]1O` (stereo partly shown) [Neu5Ac, N-acetylneuraminic acid]: the “competition with T3SA+ binding to SA” value on σ1-α-SA complex is recorded as “strongly competed”. Further, in the assay with JAM-A (1 mM free glycan, FIG. 16), the “change in T3SA+ISVP-JAM-A multivalent binding behavior” value was “does not induce any change”. In addition, in the assay on JAM-A, the “change in JAM-A-T3SA− binding or multivalent interactions” value was “does not induce any change”.
